The target of this test is Dipeptidyl peptidase 4 (Homo sapiens, UniProt P27487). Briefly: In vitro DPP IV enzyme inhibition assay. As to conditions: 37 °C. The procedure:
Following the manufacturer's guidelines, the assay was performed using 96-well flat-bottomed microtitre plate followed by addition of assay buffer, DPP IV enzyme and chromogenic substrate (HGly-Pro-pNA). Test compounds were dissolved in DMSO at different concentrations of 25, 50, 100, 200 µg/mL, and 20 µL were added to each well after further dilutions. The plate was incubated at 37°C for 10 min and read continuously at A-405 nm.

The results in this text go back to BindingDB's records for doi:10.1111/cbdd.12142 (Delhi Institute of Pharmaceutical Sciences and Research, 2013).

As usually defined, the IC50 is the concentration that inhibits the measured activity by half. Low values mean greater potency in that assay, high ones weaker potency in that assay.

Chain of Dipeptidyl peptidase 4 (P27487 whole entry): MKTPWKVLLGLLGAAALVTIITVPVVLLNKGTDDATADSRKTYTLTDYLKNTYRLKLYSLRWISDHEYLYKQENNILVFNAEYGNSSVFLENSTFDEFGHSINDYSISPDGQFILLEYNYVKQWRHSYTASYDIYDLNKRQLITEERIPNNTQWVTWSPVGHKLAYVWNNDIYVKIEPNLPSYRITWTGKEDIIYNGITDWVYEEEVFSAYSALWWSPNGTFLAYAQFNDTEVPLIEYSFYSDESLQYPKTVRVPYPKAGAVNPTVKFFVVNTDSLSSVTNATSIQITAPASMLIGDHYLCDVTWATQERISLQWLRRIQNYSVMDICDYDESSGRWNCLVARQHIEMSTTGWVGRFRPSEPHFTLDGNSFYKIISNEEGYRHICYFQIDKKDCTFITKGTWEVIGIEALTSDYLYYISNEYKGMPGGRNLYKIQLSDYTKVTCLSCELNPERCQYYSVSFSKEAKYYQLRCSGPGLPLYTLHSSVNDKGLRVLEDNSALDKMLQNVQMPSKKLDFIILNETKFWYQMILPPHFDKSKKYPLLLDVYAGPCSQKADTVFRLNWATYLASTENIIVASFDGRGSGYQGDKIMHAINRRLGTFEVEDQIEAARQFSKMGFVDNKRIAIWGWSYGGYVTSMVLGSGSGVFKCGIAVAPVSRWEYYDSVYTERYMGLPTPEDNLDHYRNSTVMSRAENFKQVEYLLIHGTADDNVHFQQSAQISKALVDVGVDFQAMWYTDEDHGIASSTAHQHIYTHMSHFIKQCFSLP

In the case of `O=C(CN1CCCC1C(=O)N1CCC(F)C1)N1CCCCCC1` (centres undefined) [1‐(azepan‐1‐yl)‐2‐[2‐(3‐fluoropyrrolidine‐1‐ carbonyl)pyrrolidin‐1‐yl]ethan‐1‐one], the IC50 amounted to 3.47 µM.

The molecule `O=C(C1CCCN1CCN1CCCCC1)N1CCC(F)C1` (centres undefined) [1‐{2‐[2‐(3‐fluoropyrrolidine‐1‐carbonyl)pyrrolidin‐1‐ yl]ethyl}piperidine] had an IC50 of 6.49 µM.

Regarding `O=C(CN1CCCC1C(=O)N1CCC(F)C1)N1CCCCC1` (centres undefined) [2‐[2‐(3‐fluoropyrrolidine‐1‐carbonyl)pyrrolidin‐1‐ yl]‐1‐(piperidin‐1‐yl)ethan‐1‐one], it took 7.88 µM to reach half-maximal inhibition (IC50).

Molecule `O=C(CN1CCCC1C(=O)N1CCC(F)C1)N1CCCC1` (centres undefined) [2‐[2‐(3‐fluoropyrrolidine‐1‐carbonyl)pyrrolidin‐1‐ yl]‐1‐(pyrrolidin‐1‐yl)ethan‐1‐one] registered a half-inhibitory concentration (IC50) of 16.7 µM.

`O=C(CN1CCCC1C(=O)N1CCC(F)C1)N1CCN(c2ccccn2)CC1` (centres undefined) [2‐[2‐(3‐fluoropyrrolidine‐1‐carbonyl)pyrrolidin‐1‐ yl]‐1‐[4‐(pyridin‐2‐yl)piperazin‐1‐yl]ethan‐1‐one] had a concentration for half-maximal inhibition (IC50) of 0.83 µM.

Turning to `O=C(CN1CCCC1C(=O)N1CCC(F)C1)N1CCN(c2ncccn2)CC1` (centres undefined) [2‐[2‐(3‐fluoropyrrolidine‐1‐carbonyl)pyrrolidin‐1‐ yl]‐1‐[4‐(pyrimidin‐2‐yl)piperazin‐1‐yl]ethan‐1‐ one], the IC50 is 0.43 µM.

Molecule `O=C(C1CCCN1)N1CCC(F)C1` (centres undefined) [3‐fluoro‐1‐(pyrrolidine‐2‐carbonyl)pyrrolidine] yielded an IC50 of 4.27 µM.

For `CCN(CC)CCN1CCCC1C(=O)N1CCC(F)C1` (centres undefined) [diethyl({2‐[2‐(3‐fluoropyrrolidine‐1‐ carbonyl)pyrrolidin‐1‐yl]ethyl})amine], the half-inhibitory concentration (IC50) was found to be 23.8 µM.

For the molecule `CN(C)CCN1CCCC1C(=O)N1CCC(F)C1` (centres undefined) [{2‐[2‐(3‐fluoropyrrolidine‐1‐carbonyl)pyrrolidin‐1‐ yl]ethyl}dimethylamine], half-maximal inhibition (IC50) was put at 30.2 µM.
